# Legend:
# Test in all cases: KINOMEscan
# Type in all cases: binding
# Conditions in all cases: 1 μM
# DRAK1 = target: T1, DRAK1 (Homo sapiens, UniProt Q9UEE5)
# T1 construct: purchased Eurofins DiscoverX Corporation
# PIP5K1A = PIP5K1A (Homo sapiens, UniProt Q99755)
# CSNK1G1 = target: T2, CSNK1G1 (Homo sapiens, UniProt Q9HCP0)
# T2 construct: purchased Eurofins DiscoverX Corporation
# GRK1 = target: T3, GRK1 (Homo sapiens, UniProt Q15835)
# T3 construct: purchased Eurofins DiscoverX Corporation
# MARK1 = target: T4, MARK1 (Homo sapiens, UniProt Q9P0L2)
# T4 construct: purchased Eurofins DiscoverX Corporation
# CHEK2 = CHEK2 (Homo sapiens, UniProt O96017)
# GSK3A = target: T5, GSK3A (Homo sapiens, UniProt P49840)
# T5 construct: purchased Eurofins DiscoverX Corporation
# BRAF = target: T6, BRAF (Homo sapiens, UniProt P15056)
# T6 construct: purchased Eurofins DiscoverX Corporation (KINOMEscan)
# CAMK1D = target: T7, CAMK1D (Homo sapiens, UniProt Q8IU85)
# T7 construct: purchased Eurofins DiscoverX Corporation (KINOMEscan)
# MRCKB = target: T8, MRCKB (Homo sapiens, UniProt Q9Y5S2)
# T8 construct: purchased Eurofins DiscoverX Corporation
# JNK3 = target: T9, JNK3 (Homo sapiens, UniProt P53779)
# T9 construct: purchased Eurofins DiscoverX (KINOMEscan)
# CIT = CIT (Homo sapiens, UniProt O14578)
# TRKC = target: T10, TRKC (Homo sapiens, UniProt Q16288)
# T10 construct: purchased Eurofins DiscoverX Corporation
# PCTK2 = PCTK2 (Homo sapiens, UniProt Q00537)
# NEK2 = target: T11, NEK2 (Homo sapiens, UniProt P51955)
# T11 construct: purchased Eurofins DiscoverX Corporation
# HCK = target: T12, HCK (Homo sapiens, UniProt P08631)
# T12 construct: purchased Eurofins DiscoverX Corporation
# TESK1 = target: T13, TESK1 (Homo sapiens, UniProt Q15569)
# T13 construct: purchased Eurofins DiscoverX Corporation
# [1] = target: T14, ABL1(H396P)-phosphorylated (Homo sapiens, UniProt P00519, H396P)
# T14 construct: purchased Eurofins DiscoverX Corporation
# KIT(V559D+V654A) = target: T15, KIT(V559D+V654A) (Homo sapiens, UniProt P10721, V559D/V654A)
# T15 construct: purchased Eurofins DiscoverX Corporation
# PIP5K1C = PIP5K1C (Homo sapiens, UniProt O60331)
# LOK = target: T16, LOK (Homo sapiens, UniProt O94804)
# T16 construct: purchased Eurofins DiscoverX Corporation
# VPS34 = VPS34 (Homo sapiens, UniProt Q8NEB9)
# IRAK4 = target: T17, IRAK4 (Homo sapiens, UniProt Q9NWZ3)
# T17 construct: purchased Eurofins DiscoverX (KINOMEscan)
# [2] = target: T18, ABL1(T315I)-phosphorylated (Homo sapiens, UniProt P00519, T315I)
# T18 construct: purchased Eurofins DiscoverX Corporation
# FLT3 = FLT3 (Homo sapiens, UniProt P36888)
# TBK1 = target: T19, TBK1 (Homo sapiens, UniProt Q9UHD2)
# T19 construct: purchased Eurofins DiscoverX Corporation
# [3] = target: T20, ABL1(F317L)-nonphosphorylated (Homo sapiens, UniProt P00519, F317L)
# T20 construct: purchased Eurofins DiscoverX Corporation
# PRP4 = PRP4 (Homo sapiens, UniProt Q13523)
# Protocol: (§1) Figure S19 : Metabolic stability determination of 4 in human liver microsomes, compared to a negative control containing bovine serum albumin instead of liver microsomes and a positive control using verapamil instead of compound.
# (§2) Table S7 : Data was obtained from KINOMEscan TM using 1 μM of compound 4 against 468 kinases. Eurofins DiscoverX Corporation (San Diego), CA 92121, USA. Results stated as percent of control (POC), where lower values are associated with lower Kd values. […]
# (§3) ABL1(F317L)-nonphosphorylated 37 […]
# (§4) (1 picture or pasted object on this page, not shown here)
# CDC2L5 = target: T21, CDC2L5 (Homo sapiens, UniProt Q14004)
# T21 construct: purchased Eurofins DiscoverX Corporation (KINOMEscan)
# Protocol: as §1, §2, §3, §4
# MAK = target: T22, MAK (Homo sapiens, UniProt P20794)
# T22 construct: purchased Eurofins DiscoverX Corporation
# FES = FES (Homo sapiens, UniProt P07332)
# MAP4K5 = target: T23, MAP4K5 (Homo sapiens, UniProt Q9Y4K4)
# T23 construct: purchased Eurofins DiscoverX Corporation
# MAST1 = target: T24, MAST1 (Homo sapiens, UniProt Q9Y2H9)
# T24 construct: purchased Eurofins DiscoverX Corporation
# PRKD1 = PRKD1 (Homo sapiens, UniProt Q15139)
# PRKR = PRKR (Homo sapiens, UniProt P19525)
# Chain of FLT3 (P36888 27-993): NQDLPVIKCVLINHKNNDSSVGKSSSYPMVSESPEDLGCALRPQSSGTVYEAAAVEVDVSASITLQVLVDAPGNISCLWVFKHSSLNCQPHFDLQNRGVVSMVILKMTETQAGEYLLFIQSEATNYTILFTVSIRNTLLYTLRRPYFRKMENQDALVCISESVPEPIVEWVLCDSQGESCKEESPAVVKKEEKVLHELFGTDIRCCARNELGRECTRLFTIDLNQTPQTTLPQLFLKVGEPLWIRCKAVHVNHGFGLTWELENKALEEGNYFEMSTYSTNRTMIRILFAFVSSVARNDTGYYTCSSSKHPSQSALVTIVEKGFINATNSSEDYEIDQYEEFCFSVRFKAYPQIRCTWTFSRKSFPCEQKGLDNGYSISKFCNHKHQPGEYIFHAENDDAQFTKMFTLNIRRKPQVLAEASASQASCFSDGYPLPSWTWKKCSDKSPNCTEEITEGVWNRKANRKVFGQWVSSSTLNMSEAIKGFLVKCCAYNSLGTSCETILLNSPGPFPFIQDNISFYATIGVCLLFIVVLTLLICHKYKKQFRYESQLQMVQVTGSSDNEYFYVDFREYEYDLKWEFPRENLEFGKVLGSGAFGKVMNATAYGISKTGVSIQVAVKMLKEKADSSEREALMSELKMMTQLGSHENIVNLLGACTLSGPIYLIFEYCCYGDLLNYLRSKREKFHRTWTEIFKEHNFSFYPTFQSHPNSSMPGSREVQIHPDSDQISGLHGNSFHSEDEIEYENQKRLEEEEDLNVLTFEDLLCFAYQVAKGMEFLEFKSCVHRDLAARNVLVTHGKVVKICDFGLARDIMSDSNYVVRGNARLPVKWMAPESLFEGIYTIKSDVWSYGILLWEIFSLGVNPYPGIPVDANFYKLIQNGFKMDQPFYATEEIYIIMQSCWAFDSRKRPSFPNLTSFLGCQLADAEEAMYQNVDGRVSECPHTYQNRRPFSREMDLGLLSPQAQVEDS
# Chain of PCTK2 (Q00537 whole entry): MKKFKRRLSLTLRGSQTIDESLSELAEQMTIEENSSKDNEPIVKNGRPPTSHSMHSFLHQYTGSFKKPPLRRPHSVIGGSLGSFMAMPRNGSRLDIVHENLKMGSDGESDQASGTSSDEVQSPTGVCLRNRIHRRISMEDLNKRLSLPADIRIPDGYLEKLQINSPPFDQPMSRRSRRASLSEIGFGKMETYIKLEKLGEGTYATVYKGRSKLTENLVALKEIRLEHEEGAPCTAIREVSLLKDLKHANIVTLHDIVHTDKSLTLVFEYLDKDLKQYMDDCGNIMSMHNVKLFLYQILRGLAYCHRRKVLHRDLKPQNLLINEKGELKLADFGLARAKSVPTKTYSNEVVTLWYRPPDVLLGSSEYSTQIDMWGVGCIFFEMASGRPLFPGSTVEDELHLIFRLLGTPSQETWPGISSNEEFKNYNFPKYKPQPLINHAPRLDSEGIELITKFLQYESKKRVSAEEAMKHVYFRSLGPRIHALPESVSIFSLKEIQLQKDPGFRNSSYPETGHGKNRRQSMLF
# T16 sequence (O94804 whole entry): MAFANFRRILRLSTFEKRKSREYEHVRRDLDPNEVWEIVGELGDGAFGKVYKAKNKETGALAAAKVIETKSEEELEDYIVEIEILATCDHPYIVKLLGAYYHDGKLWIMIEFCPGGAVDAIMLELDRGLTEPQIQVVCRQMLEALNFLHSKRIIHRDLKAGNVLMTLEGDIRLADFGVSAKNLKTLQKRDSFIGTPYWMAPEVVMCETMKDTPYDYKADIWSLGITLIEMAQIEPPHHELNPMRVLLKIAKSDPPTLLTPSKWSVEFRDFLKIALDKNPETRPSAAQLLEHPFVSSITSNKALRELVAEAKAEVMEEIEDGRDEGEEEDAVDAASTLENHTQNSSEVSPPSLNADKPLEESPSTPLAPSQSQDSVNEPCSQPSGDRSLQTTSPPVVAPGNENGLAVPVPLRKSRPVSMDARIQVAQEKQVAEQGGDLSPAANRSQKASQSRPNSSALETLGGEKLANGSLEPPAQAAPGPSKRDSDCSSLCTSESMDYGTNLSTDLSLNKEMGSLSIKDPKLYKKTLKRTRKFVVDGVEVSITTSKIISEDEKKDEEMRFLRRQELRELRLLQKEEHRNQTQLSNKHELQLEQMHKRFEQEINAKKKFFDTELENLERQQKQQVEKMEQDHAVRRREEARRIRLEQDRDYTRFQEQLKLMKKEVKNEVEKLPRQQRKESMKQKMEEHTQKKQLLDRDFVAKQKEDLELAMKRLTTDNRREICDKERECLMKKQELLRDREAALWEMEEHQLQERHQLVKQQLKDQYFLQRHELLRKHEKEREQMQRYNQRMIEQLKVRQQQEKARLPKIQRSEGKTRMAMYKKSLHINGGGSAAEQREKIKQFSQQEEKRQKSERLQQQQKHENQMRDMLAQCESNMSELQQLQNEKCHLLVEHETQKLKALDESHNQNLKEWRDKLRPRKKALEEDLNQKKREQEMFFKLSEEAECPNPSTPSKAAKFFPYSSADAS
# Chain of VPS34 (Q8NEB9 whole entry): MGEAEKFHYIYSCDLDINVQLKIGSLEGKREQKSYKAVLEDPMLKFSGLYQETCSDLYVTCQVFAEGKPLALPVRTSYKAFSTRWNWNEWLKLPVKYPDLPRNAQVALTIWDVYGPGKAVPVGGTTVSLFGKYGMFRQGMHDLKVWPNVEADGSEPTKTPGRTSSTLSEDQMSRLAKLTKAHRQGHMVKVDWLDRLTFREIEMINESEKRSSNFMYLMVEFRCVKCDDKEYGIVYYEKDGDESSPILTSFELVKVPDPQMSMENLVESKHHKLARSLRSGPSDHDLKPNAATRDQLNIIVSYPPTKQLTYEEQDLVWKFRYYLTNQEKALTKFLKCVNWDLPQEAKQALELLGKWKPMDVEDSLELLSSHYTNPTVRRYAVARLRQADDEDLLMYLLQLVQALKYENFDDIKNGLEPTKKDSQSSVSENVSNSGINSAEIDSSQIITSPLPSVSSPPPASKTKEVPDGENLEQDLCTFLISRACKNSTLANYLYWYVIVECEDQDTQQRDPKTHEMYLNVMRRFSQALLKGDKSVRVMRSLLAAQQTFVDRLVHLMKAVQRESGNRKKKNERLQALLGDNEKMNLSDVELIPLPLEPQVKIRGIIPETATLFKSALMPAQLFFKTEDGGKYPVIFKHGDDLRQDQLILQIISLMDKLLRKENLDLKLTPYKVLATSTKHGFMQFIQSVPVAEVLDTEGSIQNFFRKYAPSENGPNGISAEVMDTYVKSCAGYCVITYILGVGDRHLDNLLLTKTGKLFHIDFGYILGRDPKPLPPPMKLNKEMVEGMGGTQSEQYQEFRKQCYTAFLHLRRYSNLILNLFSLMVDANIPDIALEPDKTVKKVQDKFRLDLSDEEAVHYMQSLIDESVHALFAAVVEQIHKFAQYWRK
# T5 sequence (P49840 whole entry): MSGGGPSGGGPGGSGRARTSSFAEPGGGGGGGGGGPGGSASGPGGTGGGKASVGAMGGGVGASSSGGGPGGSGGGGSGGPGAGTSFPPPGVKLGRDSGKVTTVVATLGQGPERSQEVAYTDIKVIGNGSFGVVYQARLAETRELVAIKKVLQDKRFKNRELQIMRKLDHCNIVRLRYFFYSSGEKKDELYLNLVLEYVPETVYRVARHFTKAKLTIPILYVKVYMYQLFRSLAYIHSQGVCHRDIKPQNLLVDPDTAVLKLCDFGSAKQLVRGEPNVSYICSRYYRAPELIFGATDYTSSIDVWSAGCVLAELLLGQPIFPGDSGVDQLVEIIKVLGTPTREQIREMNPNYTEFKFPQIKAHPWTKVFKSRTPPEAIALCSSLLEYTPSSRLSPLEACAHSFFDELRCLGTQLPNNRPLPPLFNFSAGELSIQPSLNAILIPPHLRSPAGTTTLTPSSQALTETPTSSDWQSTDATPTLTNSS
# T23 sequence (Q9Y4K4 whole entry): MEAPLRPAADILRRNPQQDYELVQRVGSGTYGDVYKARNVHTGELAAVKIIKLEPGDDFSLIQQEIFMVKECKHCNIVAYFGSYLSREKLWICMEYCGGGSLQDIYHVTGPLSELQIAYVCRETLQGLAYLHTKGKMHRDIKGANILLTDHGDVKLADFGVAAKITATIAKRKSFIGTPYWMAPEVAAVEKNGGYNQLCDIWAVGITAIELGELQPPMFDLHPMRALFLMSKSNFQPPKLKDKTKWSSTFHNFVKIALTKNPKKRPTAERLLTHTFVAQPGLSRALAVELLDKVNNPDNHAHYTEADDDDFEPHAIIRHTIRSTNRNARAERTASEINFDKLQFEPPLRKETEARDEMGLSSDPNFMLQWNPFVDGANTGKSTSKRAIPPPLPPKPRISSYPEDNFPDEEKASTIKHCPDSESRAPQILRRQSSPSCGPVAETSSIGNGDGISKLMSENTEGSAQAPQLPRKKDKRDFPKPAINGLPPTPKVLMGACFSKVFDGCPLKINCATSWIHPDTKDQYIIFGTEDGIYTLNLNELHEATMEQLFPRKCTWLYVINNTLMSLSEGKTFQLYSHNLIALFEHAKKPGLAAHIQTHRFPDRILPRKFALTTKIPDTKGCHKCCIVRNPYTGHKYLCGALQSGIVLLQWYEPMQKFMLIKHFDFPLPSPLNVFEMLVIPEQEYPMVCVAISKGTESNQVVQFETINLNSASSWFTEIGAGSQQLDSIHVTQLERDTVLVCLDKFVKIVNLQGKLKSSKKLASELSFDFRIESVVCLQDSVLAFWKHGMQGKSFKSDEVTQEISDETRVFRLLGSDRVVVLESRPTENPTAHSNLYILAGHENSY
# T7 sequence (Q8IU85 whole entry): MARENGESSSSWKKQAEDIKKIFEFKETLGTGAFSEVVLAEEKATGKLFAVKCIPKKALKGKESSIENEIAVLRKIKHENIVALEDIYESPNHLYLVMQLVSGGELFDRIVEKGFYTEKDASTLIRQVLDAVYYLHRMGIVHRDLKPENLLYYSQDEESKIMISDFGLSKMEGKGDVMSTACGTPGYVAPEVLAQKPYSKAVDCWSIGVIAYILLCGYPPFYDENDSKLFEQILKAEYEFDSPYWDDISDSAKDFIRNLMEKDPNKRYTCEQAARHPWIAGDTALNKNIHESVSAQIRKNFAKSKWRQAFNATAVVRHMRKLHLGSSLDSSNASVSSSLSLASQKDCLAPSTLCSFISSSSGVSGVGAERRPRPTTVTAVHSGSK
compound,measurement,setting,value
C=CC(=O)Nc1ccc(OC)c(Nc2cc(-c3[nH]c(CC)nc3-c3cccc(NC(=O)c4cccc5c4NC(=O)c4ccccc4N5)c3)ccn2)c1 [Compound 4],POC,DRAK1,84% of control
same,POC,PIP5K1A,75% of control
same,POC,CSNK1G1,93% of control
same,POC,GRK1,94% of control
same,POC,MARK1,92% of control
same,POC,CHEK2,87% of control
same,POC,GSK3A,65% of control
same,POC,BRAF,90% of control
same,POC,CAMK1D,100% of control
same,POC,MRCKB,1.7% of control
same,POC,JNK3,53% of control
same,POC,CIT,6.3% of control
same,POC,TRKC,87% of control
same,POC,PCTK2,100% of control
same,POC,NEK2,98% of control
same,POC,HCK,14% of control
same,POC,TESK1,94% of control
same,POC,[1],74% of control
same,POC,KIT(V559D+V654A),93% of control
same,POC,PIP5K1C,78% of control
same,POC,LOK,49% of control
same,POC,VPS34,84% of control
same,POC,IRAK4,43% of control
same,POC,[2],100% of control
same,POC,FLT3,100% of control
same,POC,TBK1,95% of control
same,POC,[3],37% of control
same,POC,PRP4,46% of control
same,POC,CDC2L5,74% of control
same,POC,MAK,89% of control
same,POC,FES,28% of control
same,POC,MAP4K5,2.5% of control
same,POC,MAST1,100% of control
same,POC,PRKD1,42% of control
same,POC,PRKR,87% of control
